Reference: ChEMBL document CHEMBL1926563, “Synthesis, antimicrobial, antimycobacterial and structure-activity relationship of substituted pyrazolo-, isoxazolo-, pyrimido- and mercaptopyrimidocyclohepta[b]indoles” (2012)
Values after ≈ are worked out from the molar mass of the structure shown.

What was measured:
Assay type in all cases: functional
[1] = tested on: Mycobacterium tuberculosis; assay: Antimycobacterial activity against Mycobacterium tuberculosis H37Rv after 7 days by resazurin microtiter plate assay; details: 168 h
[2] = tested on: Bacillus subtilis; assay: Antibacterial activity against Bacillus subtilis NCIM 2063 assessed as zone of inhibition at 100 ug/disc after 24 hrs by disk diffusion method; details: NCIM 2063, 24 h, read-out: DIZ
[3] = tested on: Proteus vulgaris; assay: Antibacterial activity against Proteus vulgaris NCIM 2027 after 24 hrs by disk diffusion method; details: NCIM 2027, 24 h
[4] = tested on: Curvularia lunata; assay: Antifungal activity against Curvularia lunata NCIM 716 assessed as zone of inhibition at 100 ug/disc after 48 hrs by disk diffusion method; details: NCIM 716, 48 h, read-out: DIZ
[5] = tested on: Bacillus subtilis; assay: Antibacterial activity against Bacillus subtilis NCIM 2063 after 24 hrs by disk diffusion method; details: NCIM 2063, 24 h
[6] = tested on: Staphylococcus aureus; assay: Antibacterial activity against Staphylococcus aureus NCIM 5021 assessed as zone of inhibition at 200 ug/disc after 24 hrs by disk diffusion method; details: NCIM 5021, 24 h, read-out: DIZ
[7] = tested on: Klebsiella pneumoniae; assay: Antibacterial activity against Klebsiella pneumoniae NCIM 2957 assessed as zone of inhibition at 200 ug/disc after 24 hrs by disk diffusion method; details: NCIM 2957, 24 h, read-out: DIZ
[8] = tested on: Curvularia lunata; assay: Antifungal activity against Curvularia lunata NCIM 716 after 48 hrs by disk diffusion method; details: NCIM 716, 48 h
[9] = tested on: Curvularia lunata; assay: Antifungal activity against Curvularia lunata NCIM 716 assessed as zone of inhibition at 200 ug/disc after 48 hrs by disk diffusion method; details: NCIM 716, 48 h, read-out: DIZ
[10] = tested on: Proteus vulgaris; assay: Antibacterial activity against Proteus vulgaris NCIM 2027 assessed as zone of inhibition at 100 ug/disc after 24 hrs by disk diffusion method; details: NCIM 2027, 24 h, read-out: DIZ
[11] = tested on: Klebsiella pneumoniae; assay: Antibacterial activity against Klebsiella pneumoniae NCIM 2957 assessed as zone of inhibition at 100 ug/disc after 24 hrs by disk diffusion method; details: NCIM 2957, 24 h, read-out: DIZ
[12] = tested on: Aspergillus niger; assay: Antifungal activity against Aspergillus niger NCIM 596 assessed as zone of inhibition at 100 ug/disc after 48 hrs by disk diffusion method; details: NCIM 596, 48 h, read-out: DIZ
[13] = tested on: Aspergillus niger; assay: Antifungal activity against Aspergillus niger NCIM 596 after 48 hrs by disk diffusion method; details: NCIM 596, 48 h
[14] = tested on: Fusarium solani; assay: Antifungal activity against Fusarium solani NCIM 1330 assessed as zone of inhibition at 200 ug/disc after 48 hrs by disk diffusion method; details: NCIM 1330, 48 h, read-out: DIZ
[15] = tested on: Staphylococcus aureus; assay: Antibacterial activity against Staphylococcus aureus NCIM 5021 after 24 hrs by disk diffusion method; details: NCIM 5021, 24 h
[16] = tested on: Bacillus subtilis; assay: Antibacterial activity against Bacillus subtilis NCIM 2063 assessed as zone of inhibition at 200 ug/disc after 24 hrs by disk diffusion method; details: NCIM 2063, 24 h, read-out: DIZ
[17] = tested on: Fusarium solani; assay: Antifungal activity against Fusarium solani NCIM 1330 assessed as zone of inhibition at 100 ug/disc after 48 hrs by disk diffusion method; details: NCIM 1330, 48 h, read-out: DIZ
[18] = tested on: Fusarium solani; assay: Antifungal activity against Fusarium solani NCIM 1330 after 48 hrs by disk diffusion method; details: NCIM 1330, 48 h
[19] = tested on: Staphylococcus aureus; assay: Antibacterial activity against Staphylococcus aureus NCIM 5021 assessed as zone of inhibition at 100 ug/disc after 24 hrs by disk diffusion method; details: NCIM 5021, 24 h, read-out: DIZ
[20] = tested on: Klebsiella pneumoniae; assay: Antibacterial activity against Klebsiella pneumoniae NCIM 2957 after 24 hrs by disk diffusion method; details: NCIM 2957, 24 h
[21] = tested on: Proteus vulgaris; assay: Antibacterial activity against Proteus vulgaris NCIM 2027 assessed as zone of inhibition at 200 ug/disc after 24 hrs by disk diffusion method; details: NCIM 2027, 24 h, read-out: DIZ
[22] = tested on: Aspergillus niger; assay: Antifungal activity against Aspergillus niger NCIM 596 assessed as zone of inhibition at 200 ug/disc after 48 hrs by disk diffusion method; details: NCIM 596, 48 h, read-out: DIZ

Clc1ccc2[nH]c3c(c2c1)CCCc1cnn(-c2ccccc2)c1-3
MIC [1]: 3.12 µg/mL (≈ 9.35 µM)
zone of inhibition at 100 µg/disc [2]: 33 mm
MIC [3]: 50 µg/mL (≈ 150 µM)
zone of inhibition at 100 µg/disc [4]: 31 mm
MIC [5]: 25 µg/mL (≈ 74.9 µM)
zone of inhibition at 200 µg/disc [6]: 34 mm
zone of inhibition at 200 µg/disc [7]: 30 mm
MIC [8]: 100 µg/mL (≈ 300 µM)
zone of inhibition at 200 µg/disc [9]: 38 mm
zone of inhibition at 100 µg/disc [10]: 29 mm
zone of inhibition at 100 µg/disc [11]: 28 mm
zone of inhibition at 100 µg/disc [12]: 30 mm
MIC [13]: 100 µg/mL (≈ 300 µM)
zone of inhibition at 200 µg/disc [14]: 39 mm
MIC [15]: 25 µg/mL (≈ 74.9 µM)
zone of inhibition at 200 µg/disc [16]: 32 mm
zone of inhibition at 100 µg/disc [17]: 32 mm
MIC [18]: 200 µg/mL (≈ 599 µM)
zone of inhibition at 100 µg/disc [19]: 32 mm
MIC [20]: 50 µg/mL (≈ 150 µM)
zone of inhibition at 200 µg/disc [21]: 31 mm
zone of inhibition at 200 µg/disc [22]: 35 mm

Oc1ncc2c(n1)-c1[nH]c3ccc(Cl)cc3c1CCC2
MIC [1]: 3.12 µg/mL (≈ 10.9 µM)
zone of inhibition at 100 µg/disc [2]: 25 mm
MIC [3]: 100 µg/mL (≈ 350 µM)
zone of inhibition at 100 µg/disc [4]: 19 mm
MIC [5]: 50 µg/mL (≈ 175 µM)
zone of inhibition at 200 µg/disc [6]: 27 mm
zone of inhibition at 200 µg/disc [7]: 25 mm
MIC [8]: 50 µg/mL (≈ 175 µM)
zone of inhibition at 200 µg/disc [9]: 23 mm
zone of inhibition at 100 µg/disc [10]: 22 mm
zone of inhibition at 100 µg/disc [11]: 22 mm
zone of inhibition at 100 µg/disc [12]: 16 mm
MIC [13]: 50 µg/mL (≈ 175 µM)
zone of inhibition at 200 µg/disc [14]: 20 mm
MIC [15]: 50 µg/mL (≈ 175 µM)
zone of inhibition at 200 µg/disc [16]: 28 mm
zone of inhibition at 100 µg/disc [17]: 17 mm
MIC [18]: 100 µg/mL (≈ 350 µM)
zone of inhibition at 100 µg/disc [19]: 26 mm
MIC [20]: 100 µg/mL (≈ 350 µM)
zone of inhibition at 200 µg/disc [21]: 20 mm
zone of inhibition at 200 µg/disc [22]: 19 mm
